We go through 22 molecules from patent US12264134B2 (Merck Sharp & Dohme LLC, priority 2018, dated 2025).

For experiment [1], the target named is T1, IDO1 (Homo sapiens, UniProt P14902). Kind of experiment: IDO1 Cellular Assay in HeLa Cells Stimulated with IFNγ. In kind it is cell-based. The conditions noted are these: read-out: HeLa Cell Potency, IC50.
Experiment [2] has as its target T1, IDO1. Kind of experiment: IDO1 Human Whole blood Assay. In kind it is cell-based. The arrangement: Human whole blood was drawn in sodium heparin coated tubes from healthy internal donors; from tissue; host or cells: human whole blood from healthy donors, stimulated with LPS and IFNγ. As to conditions: LPS and IFNγ stimulated, 18 h, read-out: Human Whole Blood Potency, IC50. Summed up:
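LC/MS/MS of kynurenine, normalized to spiked isotope-labeled standard (3 μM final), served as the readout. Beforehand, fresh human blood with compound (15 min preincubation) was stimulated overnight (18 h, 37 °C) with 100 ng/mL LPS/IFNγ. IC50 was obtained by four-parameter curve fitting.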

T1 sequence (P14902 whole entry): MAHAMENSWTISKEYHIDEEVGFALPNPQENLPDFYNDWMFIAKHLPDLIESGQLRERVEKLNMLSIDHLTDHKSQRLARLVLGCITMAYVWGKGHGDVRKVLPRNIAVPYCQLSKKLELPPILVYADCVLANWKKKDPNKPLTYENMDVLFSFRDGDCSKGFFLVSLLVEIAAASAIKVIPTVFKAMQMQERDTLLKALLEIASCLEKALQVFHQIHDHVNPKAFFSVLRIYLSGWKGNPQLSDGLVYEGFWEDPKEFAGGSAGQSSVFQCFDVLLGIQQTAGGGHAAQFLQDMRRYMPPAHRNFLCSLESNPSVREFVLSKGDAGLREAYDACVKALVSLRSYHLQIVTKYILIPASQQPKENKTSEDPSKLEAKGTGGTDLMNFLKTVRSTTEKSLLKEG

As a reminder, the IC50 is the concentration needed to halve the response being measured. Take `Cc1cccc(N2CCN(C(=O)Cn3nc(C(=O)N4C[C@@H](C)O[C@@H](C)C4)c4c3C3CC3C4)CC2)c1C` (stereo partly drawn) [Example 449, 2-(3-((2R,6S)-2,6-dimethylmorpholine-4-carbonyl)-4,4a,5,5a-tetrahydro-1H-cyclopropa[4,5]cyclopenta[1,2-c]pyrazol-1-yl)-1-(4-(2,3-dimethylphenyl)piperazin-1-yl)ethanone]: the results for the IC50 on IDO1 [1] and at IDO1 [2] were 0.00799 µM and 0.543 µM, respectively.

For `Cc1cccc(N2CCN(C(=O)Cn3nc(C(=O)N4CCC(NS(C)(=O)=O)CC4)c4c3CCC4)CC2)c1C` [Example 90, N-[1-(1-{2-[4-(2,3-dimethylphenyl)piperazin-1-yl]-2-oxoethyl}-1,4,5,6-tetrahydrocyclopenta[c]pyrazole-3-carbonyl)piperidin-4-yl]methanesulfonamide], the IC50 on IDO1 [1] amounted to 0.0029 µM; on IDO1 [2], 0.292 µM.

For the molecule `Cc1cccc(N2CCN(C(=O)Cn3nc(C(=O)N4CCN(C)[C@H](C)C4)c4c3CCC4)CC2)c1C` [Example 167, 1-[4-(2,3-dimethylphenyl)piperazin-1-yl]-2-{3-[(3R)-3,4-dimethylpiperazine-1-carbonyl]-5,6-dihydrocyclopenta[c]pyrazol-1(4H)-yl}ethan-1-one], the IC50 on IDO1 [1] stood at 0.00788 µM; on IDO1 [2], 0.189 µM.

As for `Cc1cccc(N2CCN(C(=O)Cn3nc(C(=O)N4CCC(O)C(F)C4)c4c3CCC4)C3(CC3)C2)c1C` (single isomer, unassigned) [Example 328, 1-[7-(2,3-dimethylphenyl)-4,7-diazaspiro[2.5]octan-4-yl]-2-[3-(3-fluoro-4-hydroxy-piperidine-1-carbonyl)-5,6-dihydro-4H-cyclopenta[c]pyrazol-1-yl]ethanone], the IC50 at IDO1 [1] was 0.00686 µM; on IDO1 [2], 4.16 µM.

On to `Cc1c(N2CCN(C(=O)Cn3nc(C(=O)N4CCC(O)CC4)c4c3C[C@H]3C[C@@H]43)CC2)cccc1C(F)(F)F` [Example 338, 2-((3bR,4aR)-3-(4-hydroxypiperidine-1-carbonyl)-3b,4,4a,5-tetrahydro-1H-cyclopropa[3,4]cyclopenta[1,2-c]pyrazol-1-yl)-1-(4-(2-methyl-3-(trifluoromethyl)phenyl)piperazin-1-yl)ethanone], for which the half-inhibitory concentration (IC50) came to 0.00165 µM on IDO1 [1] and 0.131 µM on IDO1 [2].

As for `Cc1cccc(N2CCN(C(=O)Cn3nc(C(=O)N4CCC(O)CC4)c4c3CCC4)CC2)c1C` [Example 87, 1-[4-(2,3-dimethylphenyl)piperazin-1-yl]-2-[3-(4-hydroxypiperidine-1-carbonyl)-5,6-dihydrocyclopenta[c]pyrazol-1(4H)-yl]ethan-1-one], the IC50 came to 0.00427 µM at IDO1 [1] and 2.3 µM on IDO1 [2].

For `Cc1c(Cl)cccc1N1CCN(C(=O)Cn2nc(C(=O)N3CC[C@@H](O)[C@@H](F)C3)c3c2CCCC3)CC1` [Example 406, 1-(4-(3-chloro-2-methylphenyl)piperazin-1-yl)-2-(3-((3S,4R)-3-fluoro-4-hydroxypiperidine-1-carbonyl)-4,5,6,7-tetrahydro-1H-indazol-1-yl)ethanone], the results for the IC50 at IDO1 [1] and at IDO1 [2] were 0.003 µM and 0.306 µM, respectively.

Turning to `Cc1cccc(N2CCN(C(=O)Cn3nc(C(=O)N4CCN(CCO)CC4)c4c3C[C@H]3C[C@@H]43)CC2)c1C` [Example 247], the IC50 on IDO1 [1] was 0.00091 µM; on IDO1 [2], 0.091 µM.

For the molecule `CC(=O)NC1CCN(C(=O)c2nn(CC(=O)N3CCN(c4ccc(F)c(C)c4C)CC34CC4)c3c2[C@@H]2C[C@@H]2C3)CC1` [Example 320, N-{1-[(3bR,4aR)-1-{2-[7-(4-fluoro-2,3-dimethylphenyl)-4,7-diazaspiro[2.5]octan-4-yl]-2-oxoethyl}-3b,4,4a,5-tetrahydro-1H-cyclopropa[3,4]cyclopenta[1,2-c]pyrazole-3-carbonyl]piperidin-4-yl}acetamide], the IC50 stood at 0.00131 µM on IDO1 [1] and 0.347 µM at IDO1 [2].

For the molecule `Cc1cccc(N2CCN(C(=O)Cn3nc(C(=O)N4CCC(O)CC4)c4c3C[C@H](C(F)F)C4)CC2)c1C` (single isomer, unassigned) [Example 9], the IC50 at IDO1 [1] worked out at 0.00426 µM; at IDO1 [2], 0.126 µM.

For `Cc1cccc(N2CCN(C(=O)Cn3nc(C(=O)N4CCC(NC(=O)CO)CC4)c4c3CCCC4)CC2)c1C` [Example 473], the IC50 turned out to be 0.00416 µM at IDO1 [1] and 0.101 µM on IDO1 [2].

In the case of `Cc1cccc(N2CCN(C(=O)Cn3nc(C(=O)N4CCO[C@@H](CO)C4)c4c3C[C@H]3C[C@@H]43)C3(CC3)C2)c1C` [Example 360, 1-(7-(2,3-dimethylphenyl)-4,7-diazaspiro[2.5]octan-4-yl)-2-((3bR,4aR)-3-((R)-2-(hydroxymethyl)morpholine-4-carbonyl)-3b,4,4a,5-tetrahydro-1H-cyclopropa[3,4]cyclopenta[1,2-c]pyrazol-1-yl)ethanone], the IC50 is 0.00117 µM at IDO1 [1] and 3.87 µM at IDO1 [2].

For `Cc1c(F)ccc(N2CCN(C(=O)Cn3nc(C(=O)N4CCC(OCCO)CC4)c4c3C[C@H]3C[C@@H]43)C3(CC3)C2)c1C` [Example 321, 1-[7-(4-fluoro-2,3-dimethylphenyl)-4,7-diazaspiro[2.5]octan-4-yl]-2-{(3bR,4aR)-3-[4-(2-hydroxyethoxy)piperidine-1-carbonyl]-3b,4,4a,5-tetrahydro-1H-cyclopropa[3,4]cyclopenta[1,2-c]pyrazol-1-yl}ethan-1-one], the results for the IC50 at IDO1 [1] and on IDO1 [2] were 0.00147 µM and 0.508 µM, respectively.

For the molecule `CC(=O)NC1CCN(C(=O)c2nn(CC(=O)N3CCN(c4cccc(C)c4C)CC3)c3c2[C@@H]2C[C@@H]2C3)CC1` [Example 229, N-{1-[(3bR,4aR)-1-{2-[4-(2,3-dimethylphenyl)piperazin-1-yl]-2-oxoethyl}-3b,4,4a,5-tetrahydro-1H-cyclopropa[3,4]cyclopenta[1,2-c]pyrazole-3-carbonyl]piperidin-4-yl}acetamide], the IC50 was found to be 0.00106 µM on IDO1 [1] and 0.224 µM at IDO1 [2].

`Cc1cccc(N2CCN(C(=O)Cn3nc(C(=O)N4CCC(O)CC4)c4c3CCC4)C3(CC3)C2)c1C` [compound 392]: the IC50 at IDO1 [1] was determined as 0.00321 µM; on IDO1 [2], 2.71 µM.

For `Cc1cccc(N2CCN(C(=O)Cn3nc(C(=O)N4CCC(O)(CF)CC4)c4c3CCCC4)CC2)c1C` [Example 477, 1-(4-(2,3-dimethylphenyl)piperazin-1-yl)-2-(3-(4-(fluoromethyl)-4-hydroxypiperidine-1-carbonyl)-4,5,6,7-tetrahydro-1H-indazol-1-yl)ethanone], the results for the IC50 at IDO1 [1] and on IDO1 [2] were 0.00553 µM and 0.061 µM, respectively.

With `Cc1cccc(N2CCN(C(=O)Cn3nc(C(=O)N4C[C@@H](C)O[C@@H](C)C4)c4c3[C@H]3C[C@H]3C4)CC2)c1C` [Example 294, 2-{(4aS,5aS)-3-[(2R,6S)-2,6-dimethylmorpholine-4-carbonyl]-4,4a,5,5a-tetahydro-1H-cyclopropa[4,5]cyclopenta[1,2-c]pyrazol-1-yl}-1-[4-(2,3-dimethylphenyl)piperazin-1-yl]ethan-1-one], the IC50 on IDO1 [1] stood at 0.00559 µM; at IDO1 [2], 1.45 µM.

For `Cc1cccc(N2CCN(C(=O)Cn3nc(C(=O)N4CC[C@@H](O)[C@@H](C)C4)c4c3C[C@H]3C[C@@H]43)CC2)c1C` [Example 281, 1-[4-(2,3-dimethylphenyl)piperazin-1-yl]-2-{(3bR,4aR)-3-[(3S,4R)-4-hydroxy-3-methylpiperidine-1-carbonyl]-3b,4,4a,5-tetrahydro-1H-cyclopropa[3,4]cyclopenta[1,2-c]pyrazol-1-yl}ethan-1-one], the IC50 on IDO1 [1] was determined as 0.00097 µM; at IDO1 [2] it was 0.294 µM.

As to `Cc1cccc(N2CCN(C(=O)Cn3nc(C(=O)N4C[C@@H](C)O[C@@H](C)C4)c4c3CCC4)CC2)c1C` [Example 88, 2-{3-[(2R,6S)-2,6-dimethylmorpholine-4-carbonyl]-5,6-dihydrocyclopenta[c]pyrazol-1(4H)-yl}-1-[4-(2,3-dimethylphenyl)piperazin-1-yl]ethan-1-one], the half-inhibitory concentration (IC50) came to 0.00256 µM on IDO1 [1] and 0.416 µM on IDO1 [2].

For `Cc1cccc(N2CCN(C(=O)Cn3nc(C(=O)N4CC[C@@H](O)[C@@H](F)C4)c4c3CCCC4)CC2)c1Cl` [Example 457, 1-(4-(2-chloro-3-methylphenyl)piperazin-1-yl)-2-(3-((3S,4R)-3-fluoro-4-hydroxy-piperidine-1-carbonyl)-4,5,6,7-tetrahydro-1H-indazol-1-yl)ethanone], the IC50 turned out to be 0.00175 µM at IDO1 [1] and 0.307 µM on IDO1 [2].

As for `Cc1cccc(N2CCN(C(=O)Cn3nc(C(=O)N4CCN(S(C)(=O)=O)CC4)c4c3CCC4)CC2)c1C` [Example 127, 1-[4-(2,3-dimethylphenyl)piperazin-1-yl]-2-{3-[4-(methylsulfonyl)piperazine-1-carbonyl]-5,6-dihydrocyclopenta[c]pyrazol-1(4H)-yl}ethan-1-one], the figures for the IC50 at IDO1 [1] and on IDO1 [2] were 0.00236 µM and 0.126 µM, respectively.

As to `Cc1c(Cl)cccc1N1CCN(C(=O)Cn2nc(C(=O)N3CCC(F)(CN)CC3)c3c2C[C@H]2C[C@@H]32)C2(CC2)C1` [Example 314, 2-{(3bR,4aR)-3-[4-(aminomethyl)-4-fluoropiperidine-1-carbonyl]-3b,4,4a,5-tetrahydro-1H-cyclopropa[3,4]cyclopenta[1,2-c]pyrazol-1-yl}-1-[7-(3-chloro-2-methylphenyl)-4,7-diazaspiro[2.5]octan-4-yl]ethan-1-one], the results for the IC50 on IDO1 [1] and at IDO1 [2] were 0.00488 µM and 0.846 µM, respectively.
